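1) Cells in 96-well plates. 2) Compound, 48 h, 5 concentrations. 3) Linear interpolation between surrounding doses. 4) Unreached endpoint = highest concentration. At the GI50, growth is halved. TGI marks complete inhibition of growth.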
Tests used:
Assay in all cases: growth of human tumour cells (NCI), 48 h; in the data active means GI50 below about 0.43 µM; inactive means the rest
MDA-MB-231 breast = system: MDA-MB-231 breast
MDA-MB-435 = system: MDA-MB-435
UACC-257 melanoma = system: UACC-257 melanoma
SNB-75 CNS = system: SNB-75 CNS
SR leukemia = system: SR leukemia
HOP-62 NSCLC = system: HOP-62 NSCLC
UACC-62 melanoma = system: UACC-62 melanoma
HCT-116 colon = system: HCT-116 colon
NCI/ADR-RES ovarian = system: NCI/ADR-RES ovarian
SW-620 colon = system: SW-620 colon
SK-MEL-5 melanoma = system: SK-MEL-5 melanoma
DU-145 prostate = system: DU-145 prostate
HS 578T breast = system: HS 578T breast
SK-OV-3 ovarian = system: SK-OV-3 ovarian
OVCAR-3 ovarian = system: OVCAR-3 ovarian
A549 NSCLC = system: A549 NSCLC
KM12 colon = system: KM12 colon
MOLT-4 leukemia = system: MOLT-4 leukemia
RXF 393 renal = system: RXF 393 renal
OVCAR-5 ovarian = system: OVCAR-5 ovarian
OVCAR-4 ovarian = system: OVCAR-4 ovarian
HOP-92 NSCLC = system: HOP-92 NSCLC
SF-539 CNS = system: SF-539 CNS
UO-31 renal = system: UO-31 renal
IGROV1 ovarian = system: IGROV1 ovarian
ACHN renal = system: ACHN renal
NCI-H460 lung = system: NCI-H460 lung
SN12C renal = system: SN12C renal
RPMI-8226 leukemia = system: RPMI-8226 leukemia
EKVX NSCLC = system: EKVX NSCLC
HL-60(TB) leukemia = system: HL-60(TB) leukemia
BT-549 breast = system: BT-549 breast
SK-MEL-2 melanoma = system: SK-MEL-2 melanoma
K-562 leukemia = system: K-562 leukemia
NCI-H226 lung = system: NCI-H226 lung
SF-295 CNS = system: SF-295 CNS
CCRF-CEM leukemia = system: CCRF-CEM leukemia
U251 CNS = system: U251 CNS
COLO 205 colon = system: COLO 205 colon
PC-3 prostate = system: PC-3 prostate
HCT-15 colon = system: HCT-15 colon
LOX IMVI melanoma = system: LOX IMVI melanoma
A498 renal = system: A498 renal
SF-268 CNS = system: SF-268 CNS
TK-10 renal = system: TK-10 renal
MALME-3M melanoma = system: MALME-3M melanoma
NCI-H522 lung = system: NCI-H522 lung
HCC-2998 colon = system: HCC-2998 colon
MCF7 breast = system: MCF7 breast
SK-MEL-28 melanoma = system: SK-MEL-28 melanoma
HT29 colon = system: HT29 colon
786-0 renal = system: 786-0 renal
NCI-H23 lung = system: NCI-H23 lung
OVCAR-8 ovarian = system: OVCAR-8 ovarian
SNB-19 CNS = system: SNB-19 CNS
CAKI-1 renal = system: CAKI-1 renal
M14 melanoma = system: M14 melanoma
T-47D breast = system: T-47D breast

Cc1ccc(N=C2CSc3nnc(-c4csc5c4CCCC5)n3N2)cc1
7.75 µM: TGI (OVCAR-3 ovarian)
17.2 µM: TGI (SNB-75 CNS)
active: GI50 (MDA-MB-231 breast) 0.369 µM | GI50 (MDA-MB-435) 0.0894 µM | GI50 (SNB-75 CNS) 0.13 µM | GI50 (SR leukemia) 0.179 µM | GI50 (HOP-62 NSCLC) 0.24 µM | GI50 (UACC-62 melanoma) 0.277 µM | GI50 (HCT-116 colon) 0.225 µM | GI50 (NCI/ADR-RES ovarian) 0.167 µM | GI50 (SW-620 colon) 0.204 µM | GI50 (SK-MEL-5 melanoma) 0.175 µM | GI50 (DU-145 prostate) 0.209 µM | GI50 (HS 578T breast) 0.168 µM | GI50 (SK-OV-3 ovarian) 0.271 µM | GI50 (OVCAR-3 ovarian) 0.162 µM | GI50 (A549 NSCLC) 0.265 µM | GI50 (KM12 colon) 0.226 µM | GI50 (MOLT-4 leukemia) 0.213 µM | GI50 (RXF 393 renal) 0.162 µM | GI50 (SF-539 CNS) 0.131 µM | GI50 (NCI-H460 lung) 0.181 µM | GI50 (SN12C renal) 0.406 µM | GI50 (RPMI-8226 leukemia) 0.203 µM | GI50 (EKVX NSCLC) 0.209 µM | GI50 (HL-60(TB) leukemia) 0.12 µM | GI50 (SK-MEL-2 melanoma) 0.221 µM | GI50 (K-562 leukemia) 0.156 µM | GI50 (SF-295 CNS) 0.148 µM | GI50 (CCRF-CEM leukemia) 0.158 µM | GI50 (U251 CNS) 0.2 µM | GI50 (COLO 205 colon) 0.191 µM | GI50 (PC-3 prostate) 0.27 µM | GI50 (HCT-15 colon) 0.227 µM | GI50 (LOX IMVI melanoma) 0.302 µM | GI50 (A498 renal) 0.0988 µM | GI50 (NCI-H522 lung) 0.114 µM | GI50 (MCF7 breast) 0.165 µM | GI50 (HT29 colon) 0.175 µM | GI50 (786-0 renal) 0.297 µM | GI50 (NCI-H23 lung) 0.295 µM | GI50 (OVCAR-8 ovarian) 0.223 µM | GI50 (SNB-19 CNS) 0.222 µM
> 50 µM: TGI (MDA-MB-231 breast) | TGI (UACC-257 melanoma) | TGI (SR leukemia) | TGI (HOP-62 NSCLC) | TGI (UACC-62 melanoma) | TGI (HCT-116 colon) | TGI (NCI/ADR-RES ovarian) | TGI (SW-620 colon) | TGI (SK-MEL-5 melanoma) | TGI (DU-145 prostate) | TGI (SK-OV-3 ovarian) | TGI (A549 NSCLC) | TGI (KM12 colon) | TGI (MOLT-4 leukemia) | TGI (RXF 393 renal) | TGI (OVCAR-5 ovarian) | TGI (OVCAR-4 ovarian) | TGI (HOP-92 NSCLC) | TGI (UO-31 renal) | TGI (IGROV1 ovarian) | TGI (ACHN renal) | TGI (NCI-H460 lung) | TGI (SN12C renal) | TGI (RPMI-8226 leukemia) | TGI (EKVX NSCLC) | TGI (BT-549 breast) | TGI (SK-MEL-2 melanoma) | TGI (K-562 leukemia) | TGI (NCI-H226 lung) | TGI (CCRF-CEM leukemia) | TGI (U251 CNS) | TGI (COLO 205 colon) | TGI (PC-3 prostate) | TGI (HCT-15 colon) | TGI (LOX IMVI melanoma) | TGI (SF-268 CNS) | TGI (TK-10 renal) | TGI (MALME-3M melanoma) | TGI (HCC-2998 colon) | TGI (MCF7 breast) | TGI (SK-MEL-28 melanoma) | TGI (HT29 colon) | TGI (786-0 renal) | TGI (NCI-H23 lung) | TGI (OVCAR-8 ovarian) | TGI (SNB-19 CNS)
0.432 µM: TGI (NCI-H522 lung)
0.298 µM: TGI (HL-60(TB) leukemia)
0.412 µM: TGI (A498 renal)
inactive: GI50 (UACC-257 melanoma) > 50 µM | GI50 (OVCAR-5 ovarian) 0.932 µM | GI50 (OVCAR-4 ovarian) > 50 µM | GI50 (HOP-92 NSCLC) 1.97 µM | GI50 (UO-31 renal) 0.43 µM | GI50 (IGROV1 ovarian) 0.446 µM | GI50 (ACHN renal) 2.94 µM | GI50 (BT-549 breast) 0.458 µM | GI50 (NCI-H226 lung) > 50 µM | GI50 (SF-268 CNS) 0.561 µM | GI50 (TK-10 renal) > 50 µM | GI50 (MALME-3M melanoma) 26.5 µM | GI50 (HCC-2998 colon) 1.31 µM | GI50 (SK-MEL-28 melanoma) 8.24 µM
0.237 µM: TGI (MDA-MB-435)
0.473 µM: TGI (SF-539 CNS)
14 µM: TGI (SF-295 CNS)
40.2 µM: TGI (HS 578T breast)

Cc1ccc(C(=O)CC(Cl)=C(Cl)Cl)cc1
55.6 µM: TGI (SR leukemia)
52.1 µM: TGI (CCRF-CEM leukemia)
74.3 µM: TGI (RPMI-8226 leukemia)
> 100 µM: TGI (MDA-MB-231 breast) | TGI (MDA-MB-435) | TGI (UACC-257 melanoma) | TGI (SNB-75 CNS) | TGI (HOP-62 NSCLC) | TGI (UACC-62 melanoma) | TGI (HCT-116 colon) | TGI (NCI/ADR-RES ovarian) | TGI (CAKI-1 renal) | TGI (SW-620 colon) | TGI (SK-MEL-5 melanoma) | TGI (DU-145 prostate) | TGI (HS 578T breast) | TGI (SK-OV-3 ovarian) | TGI (OVCAR-3 ovarian) | TGI (A549 NSCLC) | TGI (KM12 colon) | TGI (RXF 393 renal) | TGI (OVCAR-5 ovarian) | TGI (M14 melanoma) | TGI (OVCAR-4 ovarian) | TGI (HOP-92 NSCLC) | TGI (SF-539 CNS) | TGI (UO-31 renal) | TGI (IGROV1 ovarian) | TGI (ACHN renal) | TGI (NCI-H460 lung) | TGI (HL-60(TB) leukemia) | TGI (BT-549 breast) | TGI (SK-MEL-2 melanoma) | TGI (K-562 leukemia) | TGI (NCI-H226 lung) | TGI (SF-295 CNS) | TGI (U251 CNS) | TGI (COLO 205 colon) | TGI (T-47D breast) | TGI (PC-3 prostate) | TGI (HCT-15 colon) | TGI (LOX IMVI melanoma) | TGI (A498 renal) | TGI (SF-268 CNS) | TGI (TK-10 renal) | TGI (MALME-3M melanoma) | TGI (NCI-H522 lung) | TGI (MCF7 breast) | TGI (SK-MEL-28 melanoma) | TGI (HT29 colon) | TGI (786-0 renal) | TGI (NCI-H23 lung) | TGI (OVCAR-8 ovarian) | TGI (SNB-19 CNS)
47 µM: TGI (MOLT-4 leukemia)

CCCCCCCCCCCCCCCCCCNc1ccn(C2OC(COP(=O)(O)O)C(O)C2O)c(=O)n1 (centres undefined)
> 100 µM: TGI (MDA-MB-231 breast) | TGI (MDA-MB-435) | TGI (UACC-257 melanoma) | TGI (SNB-75 CNS) | TGI (HOP-62 NSCLC) | TGI (UACC-62 melanoma) | TGI (HCT-116 colon) | TGI (NCI/ADR-RES ovarian) | TGI (CAKI-1 renal) | TGI (SW-620 colon) | TGI (SK-MEL-5 melanoma) | TGI (DU-145 prostate) | TGI (HS 578T breast) | TGI (SK-OV-3 ovarian) | TGI (OVCAR-3 ovarian) | TGI (A549 NSCLC) | TGI (KM12 colon) | TGI (MOLT-4 leukemia) | TGI (RXF 393 renal) | TGI (OVCAR-5 ovarian) | TGI (M14 melanoma) | TGI (OVCAR-4 ovarian) | TGI (HOP-92 NSCLC) | TGI (SF-539 CNS) | TGI (UO-31 renal) | TGI (IGROV1 ovarian) | TGI (ACHN renal) | TGI (SN12C renal) | TGI (RPMI-8226 leukemia) | TGI (EKVX NSCLC) | TGI (BT-549 breast) | TGI (SK-MEL-2 melanoma) | TGI (K-562 leukemia) | TGI (NCI-H226 lung) | TGI (SF-295 CNS) | TGI (CCRF-CEM leukemia) | TGI (U251 CNS) | TGI (COLO 205 colon) | TGI (T-47D breast) | TGI (PC-3 prostate) | TGI (HCT-15 colon) | TGI (LOX IMVI melanoma) | TGI (A498 renal) | TGI (SF-268 CNS) | TGI (TK-10 renal) | TGI (NCI-H522 lung) | TGI (HCC-2998 colon) | TGI (MCF7 breast) | TGI (SK-MEL-28 melanoma) | TGI (HT29 colon) | TGI (786-0 renal) | TGI (NCI-H23 lung) | TGI (OVCAR-8 ovarian) | TGI (SNB-19 CNS)
